pIC50: −log10 of the molar value. Read-outs that look alike come from different tables or passages of the source.
Assays:
COX II enzyme = target: T1, COX II enzyme (Mus musculus, UniProt Q05769); settings: J. Biol. Chem., 268, 6610 (1993); cited from earlier work
T1 sequence (Q05769 18-604): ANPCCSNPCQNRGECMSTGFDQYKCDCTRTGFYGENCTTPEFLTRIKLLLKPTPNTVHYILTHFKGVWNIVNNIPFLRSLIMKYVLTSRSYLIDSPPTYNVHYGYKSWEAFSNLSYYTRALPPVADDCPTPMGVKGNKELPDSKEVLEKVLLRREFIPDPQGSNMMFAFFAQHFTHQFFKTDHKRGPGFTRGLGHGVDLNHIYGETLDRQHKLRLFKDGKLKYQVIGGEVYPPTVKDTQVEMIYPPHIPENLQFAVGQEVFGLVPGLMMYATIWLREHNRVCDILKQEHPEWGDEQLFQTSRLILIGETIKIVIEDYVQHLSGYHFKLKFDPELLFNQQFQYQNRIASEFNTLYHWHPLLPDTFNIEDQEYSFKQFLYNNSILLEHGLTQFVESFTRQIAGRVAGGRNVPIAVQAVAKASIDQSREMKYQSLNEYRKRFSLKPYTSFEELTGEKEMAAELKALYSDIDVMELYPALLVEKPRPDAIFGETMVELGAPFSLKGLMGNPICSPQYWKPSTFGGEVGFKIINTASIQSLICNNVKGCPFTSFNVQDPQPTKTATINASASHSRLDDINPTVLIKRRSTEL

human COX II = target: T2, human COX II (Homo sapiens, UniProt P35354); assay: Assay for COX II activity in vitro (PGE2 ELISA, recombinant enzyme); format: biochemical
T2 construct: A 2.0 kb fragment containing the coding region; made in house; host or cells: SF9 insect cells (baculovirus, transfer vector pVL1393)
T2 sequence (P35354 18-604): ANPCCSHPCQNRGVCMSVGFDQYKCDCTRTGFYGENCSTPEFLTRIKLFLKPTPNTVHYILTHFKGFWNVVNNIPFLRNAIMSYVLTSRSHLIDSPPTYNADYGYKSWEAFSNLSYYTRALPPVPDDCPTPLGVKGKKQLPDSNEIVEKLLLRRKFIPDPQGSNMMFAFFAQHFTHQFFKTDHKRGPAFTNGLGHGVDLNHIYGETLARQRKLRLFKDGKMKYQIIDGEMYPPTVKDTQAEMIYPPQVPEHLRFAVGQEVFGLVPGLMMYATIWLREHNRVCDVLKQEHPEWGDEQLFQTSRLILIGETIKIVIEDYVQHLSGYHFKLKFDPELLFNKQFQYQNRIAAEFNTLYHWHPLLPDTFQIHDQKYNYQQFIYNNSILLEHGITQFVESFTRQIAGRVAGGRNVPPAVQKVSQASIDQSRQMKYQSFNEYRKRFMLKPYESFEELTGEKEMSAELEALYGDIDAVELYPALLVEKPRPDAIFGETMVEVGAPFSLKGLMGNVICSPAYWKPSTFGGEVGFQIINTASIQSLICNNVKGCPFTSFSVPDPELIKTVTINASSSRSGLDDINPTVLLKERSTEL

human COX I = target: T3, human COX I (Homo sapiens, UniProt P23219); assay: Assay for COX I activity in vitro (PGE2 ELISA, recombinant enzyme); format: biochemical
T3 construct: A 2.0 kb fragment containing the coding region; made in house; host or cells: SF9 insect cells (baculovirus, transfer vector pVL1393)

[1] = Whole Blood Assay for Thromboxane B2 Activity; format: cell-based; settings: calcium ionophore A23187
Method: Whole Blood Assay for Thromboxane B2 Activity:
Thromboxane B2 (TXB2) activity was assayed using an ELISA to detect the TXB2 released. Various concentrations of compounds and standards were prepared by a set of serial dilutions (1:3) in a microtiter plate with ethanol. In U-bottom microtiter plates, 50 μl whole blood (green top heparin), 150 μl RPMI media (JRH Biosciences) and 5 μl compound solution were mixed and preincubated at 37° C. for fifteen minutes prior to the addition 4 μg of the calcium ionophore A23187. Any reaction between the compounds and the cells was stopped after ten minutes at 37° C. by centrifuging the cells at 2000 rpm for ten minutes at 4° C. and transferring 20 μl of the supernatant into 180 μl ELISA enzyme immuno assay buffer. The TXB2 formed was measured by standard ELISA technology (Cayman Chemical). To washed and pre-coated (goat anti-rabbit IgG H&L) microtiter plates, was added 40 μl enzyme immuno assay buffer, 10 μl diluted supernatants, 50 μl […] and 50 μl TXB2 antisera. After covered overnight incubation at room temperature. 200 μl Ellman reagent was added and incubated. The absorbance was read at 405 nm with a 650 nm reference.

Murine COX I = target: T4, Murine COX I (Mus musculus, UniProt P22437); assay: Assay for COX I activity in vitro (PGE2 ELISA, recombinant enzyme); format: biochemical; settings: read-out: Murine COX I ID50
T4 construct: A 2.0 kb fragment containing the coding region; made in house; host or cells: SF9 insect cells (baculovirus, transfer vector pVL1393)
T4 sequence (P22437 27-602): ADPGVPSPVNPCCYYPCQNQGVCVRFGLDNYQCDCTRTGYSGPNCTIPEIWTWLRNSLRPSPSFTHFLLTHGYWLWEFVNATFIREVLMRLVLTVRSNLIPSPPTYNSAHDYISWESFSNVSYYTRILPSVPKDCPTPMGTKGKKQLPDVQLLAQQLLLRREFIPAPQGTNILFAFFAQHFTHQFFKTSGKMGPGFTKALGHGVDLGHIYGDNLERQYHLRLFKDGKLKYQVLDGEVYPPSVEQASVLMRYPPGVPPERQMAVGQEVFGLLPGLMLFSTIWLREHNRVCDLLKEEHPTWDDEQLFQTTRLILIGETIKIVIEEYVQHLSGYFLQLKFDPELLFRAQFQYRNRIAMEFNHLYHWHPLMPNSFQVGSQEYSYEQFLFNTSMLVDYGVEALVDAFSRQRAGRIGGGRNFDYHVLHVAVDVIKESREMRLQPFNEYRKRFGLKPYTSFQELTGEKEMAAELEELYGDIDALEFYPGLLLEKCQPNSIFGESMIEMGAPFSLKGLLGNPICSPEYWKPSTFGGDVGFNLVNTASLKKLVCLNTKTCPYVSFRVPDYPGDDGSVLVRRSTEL

Murine COX II = target: T5, Murine COX II (Mus musculus, UniProt Q05769); assay: Assay for COX II activity in vitro (PGE2 ELISA, recombinant enzyme); format: biochemical; settings: read-out: Murine COX II ID50
T5 construct: A 2.0 kb fragment containing the coding region; made in house; host or cells: SF9 insect cells (baculovirus, transfer vector pVL1393)
T5 sequence (Q05769 18-604): T1 sequence (Q05769 18-604)

[2] = Gen. Pharmac., 24, 105 (1993); cited from earlier work
[3] = Gen. Pharmac., 24, 105 (1993); cited from earlier work; remark: listed apart in the source

T3 sequence (P23219 24-599): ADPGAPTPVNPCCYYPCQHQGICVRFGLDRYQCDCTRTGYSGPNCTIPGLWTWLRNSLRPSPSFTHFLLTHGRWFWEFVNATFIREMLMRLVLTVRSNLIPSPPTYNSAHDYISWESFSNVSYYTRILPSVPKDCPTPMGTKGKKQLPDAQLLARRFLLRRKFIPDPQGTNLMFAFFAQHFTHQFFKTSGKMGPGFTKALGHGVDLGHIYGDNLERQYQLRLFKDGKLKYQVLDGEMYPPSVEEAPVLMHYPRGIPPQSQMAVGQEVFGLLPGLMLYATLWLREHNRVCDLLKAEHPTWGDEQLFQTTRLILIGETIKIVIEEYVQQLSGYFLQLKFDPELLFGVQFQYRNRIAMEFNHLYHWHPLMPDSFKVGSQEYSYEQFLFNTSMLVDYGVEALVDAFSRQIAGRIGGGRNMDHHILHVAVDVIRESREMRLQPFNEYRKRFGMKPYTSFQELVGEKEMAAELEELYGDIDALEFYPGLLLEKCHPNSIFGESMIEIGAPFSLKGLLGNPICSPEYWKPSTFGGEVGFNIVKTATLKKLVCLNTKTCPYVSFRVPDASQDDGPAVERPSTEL

For `COc1ccc2cc(CC(=O)O)ccc2c1` [6-methoxy-2-napthylacetic acid], the “selective inhibition of the COX II enzyme” value (COX II enzyme) is given as “selectively inhibit the COX II enzyme”.
With `CS(=O)(=O)c1ccc(-c2cscc2-c2ccc(F)cc2)cc1` [Example 1, 3-(4-Methylsulfonylphenyl)-4-(4-fluorophenyl)thiophene] the pIC50 (human COX II) was over 7.00, the pIC50 (human COX I) was under 4.00 and the pIC50 [1] was 4.68.
`CS(=O)(=O)c1ccc(-c2csc(Br)c2-c2ccc(F)cc2)cc1` [Example 2, 4(4-Methylsulfonylphenyl)-3-(4-fluorophenyl)-2-bromothiophene] showed a pIC50 [1] of 6.40 and a pIC50 (Murine COX I) of 5.46.
For `CS(=O)(=O)c1ccc(-c2c(Br)sc(Br)c2-c2ccc(F)cc2)cc1` [Example 3, 4-(4-Methylsulfonylphenyl)-3-(4-fluorophenyl)-2,5-dibromothiophene], the pIC50 (Murine COX II) was 5.82.
For `COc1ccc(-c2cscc2-c2ccc(OC)cc2)cc1` [Example 4, 3,4-Bis(4-methoxyphenyl)thiophene], the pIC50 [1] was over 7.00, the pIC50 (Murine COX II) was 6.10 and the pIC50 (Murine COX I) was 6.52.
`CCOC(=O)c1scc(-c2ccc(S(C)(=O)=O)cc2)c1-c1ccc(F)cc1` [Example 5, Ethyl[4-(4-methylsulfonylphenyl)-3-(4-fluorophenyl)thien-2-yl]carboxylate] showed a pIC50 (Murine COX II) of over 7.00 and a pIC50 (Murine COX I) of under 5.52.
`COc1ccc(-c2cscc2-c2ccc(S(C)(=O)=O)cc2)cc1` [Example 6, 3-(4-Methylsulfonylphenyl)-4-(4-methoxyphenyl)thiophene] gave a pIC50 (Murine COX II) of over 7.00 and a pIC50 (Murine COX I) of over 6.52.
Compound `COc1ccc(-c2c(-c3ccc(S(C)(=O)=O)cc3)csc2Br)cc1` [Example 7, 3-(4-Methylsulfonylphenyl)-4-(4-methoxyphenyl)-5-bromothiophene] has a pIC50 [1] of over 7.00, a pIC50 (Murine COX II) of over 7.00 and a pIC50 (Murine COX I) of over 7.00.
Work on `CCOC(=O)c1sc(C(=O)O)c(-c2ccc(F)cc2)c1-c1ccc(S(C)(=O)=O)cc1` [Example 8, 2-Ethoxycarbonyl-4-(4-fluorophenyl)-3-(4-methanesulfonylphenyl)-thienyl-5-carboxylic acid] yielded a pIC50 (Murine COX II) of 5.26 and a pIC50 (Murine COX I) of under 4.00.
With `CS(=O)(=O)c1ccc(-c2c(C(=O)O)sc(C(=O)O)c2-c2ccc(F)cc2)cc1` [Example 9, 4-(4-Fluorophenyl)-3-(4-methanesulfonylphenyl)thienyl-2,5-dicarboxylic acid] the pIC50 (Murine COX II) was 5.33 and the pIC50 (Murine COX I) was under 4.00.
`CS(=O)(=O)c1ccc(-c2cscc2-c2ccccc2)cc1` [Example 10, 3-(4-Methanesulfonylphenyl)-4-phenyl-thiophene] gave a pIC50 [1] of 5.15, a pIC50 (Murine COX II) of over 7.00 and a pIC50 (Murine COX I) of under 5.00.
Work on `Cc1ccc(-c2cscc2-c2ccc(S(C)(=O)=O)cc2)cc1` [Example 11, 3-(4-Methanesulfonylphenyl)-4-(4-methylphenyl)thiophene] yielded a pIC50 [1] of 5.15, a pIC50 (Murine COX II) of over 7.00 and a pIC50 (Murine COX I) of under 4.00.
In the case of `NS(=O)(=O)c1ccc(-c2cscc2-c2ccc(F)cc2)cc1` [Example 12, 4-[4-(4-Fluorophenyl)thien-3-yl]benzenesulfonamide], the melting point was 194 to 195 °C.
`CS(=O)(=O)c1ccc(-c2cocc2-c2ccc(F)cc2)cc1` [Example 13, 3-(4-Fluorophenyl)-4-(methylsulfonylphenyl)furan] showed a pIC50 (human COX II; human COX II enzyme (footnote *), read-out: COX II ID50) of 5.72, a pIC50 (human COX I; human COX I enzyme (footnote *), read-out: COX I ID50) of under 4.00 and a melting point of 160 to 161 °C.
For `CS(=O)(=O)c1ccc(-c2cscc2-c2ccc(F)nc2)cc1` [Example 14], the melting point was 190 to 191 °C (dec.), the pIC50 [1] was 4.57 and the pIC50 (Murine COX II) was 6.70. It also gave a pIC50 (Murine COX I) of under 5.00.
Work on `Cc1cc(F)ccc1-c1cscc1-c1ccc(S(C)(=O)=O)cc1` [Example 15, 3-(4-Methylsulfonylphenyl)-4-(2-methyl-4-fluorophenyl)thiophene] yielded a melting point of 158 to 160 °C, a pIC50 [1] of 4.55 and a pIC50 (Murine COX I) of 5.07.
In the case of `CS(=O)(=O)Nc1ccc([N+](=O)[O-])cc1OC1CCCCC1` [N-(2-cyclohexyloxy-4-nitrophenyl)methanesulfonamide], the gastric side effects [2] is given as “lacks gastric side effects” and the antiinflammatory activity [3] is given as “antiinflammatory”.

Source: patent US20030013744A1, “3,4-diaryl thiophenes and analogs thereof having use as anti-inflammatory agents” (G.D. Searle & Co., priority 1993, published 2003)
